For 41 compounds, IC50 results are on record in US11420944B2, “Voltage-dependent t-type calcium channel blocker” (Nippon Chemiphar Co., Ltd., priority 2016, dated 2022).

Structures are written as SMILES. Where two headings read alike, the source gives them in different places.

This assay deals with T1, human Cav3.2 channels (Homo sapiens, UniProt O95180).
T1 construct: expressed in transfected cells; host or cells: HEK293 cells (ATCC No. CRL-1573), plasmid pcDNA3.1(+)
As to the kind of experiment: Intracellular calcium concentration measurement (Fluo-4 AM) in stable cells expressing human Cav3.2 channels, buffer A / buffer B. The class given is cell-based. The text has this: Construction of Stable Cells Expressing Human Cav3.2 Channels
(1) A sequence produced by incorporating HindIII site and kozak sequence (GCCACC) into the 5′-terminal side of human Cav3.2 channel ORF (Open Reading Frame) gene and incorporating Kpnl site into the 3′-terminal side was incorporated into pcDNA3.1(+) (Thermo-Fisher Scientific, Inc., #V790-20), and the plasmid was transfected into HEK293 cells (ATCC No. CRL-1573) according to the protocol of FuGENE (registered trademark) HD Transfection Reagent (PROMEGA #E2311).
(2) Method for Measuring Intracellular Calcium Concentration
In the present measurement system, buffer A and buffer B having different potassium ion concentrations were used in order to evaluate the state-dependent Cav3.2 inhibitory action of a test compound.
Stable cell line expressing human Cav3.2 channels, which had been produced in (1), was seeded in a 96-well plate using DMEM medium including 10% FBS, and the cells were cultured for 48 hours under the conditions of 37° C. and 5% CO2. Subsequently, the medium was removed, and various wells that had been washed with a base buffer were treated with 80 μL of a fluorescent dye solution containing a mixed liquid of 22 μg of calcium fluorescence indicator Fluo-4 AM (Dojindo Laboratories Co., Ltd., #F311), 20 μL of DMSO, […] of 10% Pluronic F-127 (Thermo-Fisher Scientific, Inc., #P6866), and 4 mL of a base buffer. The cells were left to stand for 45 minutes at room temperature in the dark, and then the cells were washed with buffer A or buffer B. Solutions having various test compound concentrations and respectively containing buffer A or buffer B were added to the respective wells, the respective solutions containing DMSO at the same final concentration as that of the test compound as negative control, or containing the test compound dissolved in 100% DMSO at a final concentration of 0.1%. The cells were left to stand for another 15 minutes at room temperature in the dark, and the cells were analyzed using the following method using a microplate reader, EnVision (PerkinElmer, Inc.). First, the background fluorescence for each well was measured, subsequently an ionophore was added to the well, and the fluorescence of the baseline was measured. Subsequently, buffer A or buffer B containing added KCl at a concentration of 83.8 mM or 91.8 mM was added to each well, and an increase in fluorescence caused by a calcium influx generated by that stimulus was measured for 10 seconds. The percentage inhibition was calculated from the maximum fluorescence increment from the baseline, and the logarithmic value of the test compound concentration and the inhibitory activity were plotted to calculate the IC50 value. The analysis was carried out by measuring the fluorescence at 510 nm emitted when the cells were irradiated with exciting light at 485 nm.
Base buffer: 140 mM NaCl, 5 mM KCl, 1 mM MgCl2, 0.5 mM CaCl2, 10 mM Glucose, and 10 mM HEPES, pH 7.3
Buffer A: Equilibrium potential of potassium: −92 mV
(In general: Calcium flux is commonly read through the fluorescence of an indicator in the cells.)

[1] abbreviates: Tables 2 to 6, buffer A, equilibrium potential of potassium −92 mV, read-out: Inhibitory action of buffer A (inactivated state).
The mark [2] stands for this setting: Table 1, buffer A, equilibrium potential of potassium −92 mV, read-out: Inhibitory action of buffer A (inactivated state).
Setting [3] is: Table 1, buffer B, equilibrium potential of potassium −110 mV, read-out: Inhibitory action of buffer B (resting state or closed state).

T1 sequence (O95180 whole entry): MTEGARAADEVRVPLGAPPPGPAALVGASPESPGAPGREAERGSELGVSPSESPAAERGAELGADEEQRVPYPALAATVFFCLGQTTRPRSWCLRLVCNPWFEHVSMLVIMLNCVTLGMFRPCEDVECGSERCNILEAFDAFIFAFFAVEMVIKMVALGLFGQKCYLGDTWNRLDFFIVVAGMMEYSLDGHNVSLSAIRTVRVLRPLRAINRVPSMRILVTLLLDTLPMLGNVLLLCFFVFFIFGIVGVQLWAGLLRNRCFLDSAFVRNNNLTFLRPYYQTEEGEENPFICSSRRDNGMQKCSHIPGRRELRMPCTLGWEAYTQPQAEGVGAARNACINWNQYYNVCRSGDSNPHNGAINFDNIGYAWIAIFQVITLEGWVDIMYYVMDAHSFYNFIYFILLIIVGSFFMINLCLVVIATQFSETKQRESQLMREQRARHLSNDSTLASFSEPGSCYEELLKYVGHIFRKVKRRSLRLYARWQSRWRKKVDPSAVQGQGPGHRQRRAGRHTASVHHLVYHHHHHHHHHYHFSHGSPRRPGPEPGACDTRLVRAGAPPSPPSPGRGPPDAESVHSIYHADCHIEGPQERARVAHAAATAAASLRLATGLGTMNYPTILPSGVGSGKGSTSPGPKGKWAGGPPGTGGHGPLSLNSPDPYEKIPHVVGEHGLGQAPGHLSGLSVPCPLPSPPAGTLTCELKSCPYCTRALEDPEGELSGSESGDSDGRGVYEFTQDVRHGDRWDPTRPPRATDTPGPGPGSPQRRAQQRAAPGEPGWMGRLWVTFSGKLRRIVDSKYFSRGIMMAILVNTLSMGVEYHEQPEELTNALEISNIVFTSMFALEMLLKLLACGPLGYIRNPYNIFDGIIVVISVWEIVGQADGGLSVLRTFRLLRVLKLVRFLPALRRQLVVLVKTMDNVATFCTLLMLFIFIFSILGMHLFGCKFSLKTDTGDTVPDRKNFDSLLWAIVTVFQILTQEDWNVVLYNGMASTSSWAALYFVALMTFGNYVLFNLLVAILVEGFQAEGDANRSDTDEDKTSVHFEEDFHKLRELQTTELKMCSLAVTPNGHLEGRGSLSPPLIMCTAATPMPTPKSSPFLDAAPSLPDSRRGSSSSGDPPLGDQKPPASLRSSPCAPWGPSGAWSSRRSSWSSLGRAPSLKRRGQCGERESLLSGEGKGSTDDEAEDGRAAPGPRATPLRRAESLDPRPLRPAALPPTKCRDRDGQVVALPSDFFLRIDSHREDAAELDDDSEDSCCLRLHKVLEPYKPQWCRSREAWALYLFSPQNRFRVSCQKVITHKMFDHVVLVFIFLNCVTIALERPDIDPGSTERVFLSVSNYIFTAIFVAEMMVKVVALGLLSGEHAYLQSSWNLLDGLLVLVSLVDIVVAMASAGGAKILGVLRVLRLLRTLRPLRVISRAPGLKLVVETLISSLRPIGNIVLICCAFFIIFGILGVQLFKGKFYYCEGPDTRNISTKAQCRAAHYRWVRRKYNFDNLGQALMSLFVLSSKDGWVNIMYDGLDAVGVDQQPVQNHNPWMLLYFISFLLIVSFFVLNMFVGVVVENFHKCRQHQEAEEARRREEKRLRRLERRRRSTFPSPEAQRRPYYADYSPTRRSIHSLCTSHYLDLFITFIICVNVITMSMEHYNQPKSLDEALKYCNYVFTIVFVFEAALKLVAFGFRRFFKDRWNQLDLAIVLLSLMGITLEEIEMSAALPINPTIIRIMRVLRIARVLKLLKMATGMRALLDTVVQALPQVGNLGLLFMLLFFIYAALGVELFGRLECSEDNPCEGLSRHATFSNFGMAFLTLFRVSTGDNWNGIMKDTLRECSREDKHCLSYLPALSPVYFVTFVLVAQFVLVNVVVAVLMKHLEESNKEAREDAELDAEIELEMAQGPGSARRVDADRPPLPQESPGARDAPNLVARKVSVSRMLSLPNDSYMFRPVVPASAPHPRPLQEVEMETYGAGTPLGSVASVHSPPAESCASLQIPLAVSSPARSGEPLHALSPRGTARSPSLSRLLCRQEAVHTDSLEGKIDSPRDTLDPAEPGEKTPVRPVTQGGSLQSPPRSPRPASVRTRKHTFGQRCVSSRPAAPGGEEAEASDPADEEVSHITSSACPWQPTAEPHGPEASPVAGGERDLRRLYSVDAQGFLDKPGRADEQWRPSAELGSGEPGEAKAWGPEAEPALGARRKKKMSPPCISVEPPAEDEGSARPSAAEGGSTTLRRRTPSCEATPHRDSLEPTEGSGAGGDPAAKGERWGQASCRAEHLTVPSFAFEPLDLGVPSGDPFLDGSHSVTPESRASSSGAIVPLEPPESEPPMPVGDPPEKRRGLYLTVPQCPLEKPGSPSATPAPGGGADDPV

Regarding `C[C@@H](NC(=O)C1CC1c1nc2cnccc2[nH]1)c1ccc(OCC(F)(F)F)s1` (mixture of isomers) [Example 28, Trans-2-(1H-imidazo[4,5-c]pyridin-2-yl)-N—((R)-1-(5-(2,2,2-trifluoroethoxy)thiophen-2-yl)ethyl)cyclopropane-1-carboxamide], under setting [1], the IC50 was more than 10 µM. For `Cc1cc([C@@H](C)NC(=O)C2CC2c2nc3ccccc3[nH]2)sc1OCC(F)(F)F` (single isomer, unassigned) [Example 1A], the IC50 under setting [2] was in the range of 0.1 to 1 µM and the IC50 under setting [3] is more than 10 µM.

For `Cc1cc([C@@H](C)NC(=O)C2CC2c2nc3ccccc3[nH]2)sc1OCC(F)(F)F` (single isomer, unassigned) [Example 1B], under setting [2], the IC50 fell in the range of 1 to 10 µM. As to `C[C@H](NC(=O)C1CC1c1nc2ccccc2[nH]1)c1ccc(OCC(F)(F)F)s1` (single isomer, unassigned) [Example 2A], the IC50 is 1 to 10 µM under setting [2] and more than 10 µM under setting [3]. For `C[C@H](NC(=O)C1CC1c1nc2ccccc2[nH]1)c1ccc(OCC(F)(F)F)s1` (single isomer, unassigned) [Example 2B] the same measures were 1 to 10 µM and more than 10 µM. The matching figures for `C[C@@H](NC(=O)C1CC1c1nc2ccccc2[nH]1)c1ccc(OCC(F)(F)F)s1` (single isomer, unassigned) [Example 3B]: 1 to 10 µM and 1 to 10 µM. For `C[C@@H](NC(=O)C1CC1c1nc2ccccc2n1C)c1ccc(OCC(F)(F)F)s1` (single isomer, unassigned) [Example 4B] the same measures were 1 to 10 µM and more than 10 µM. Take `C[C@@H](NC(=O)C1CC1c1nc2ccccc2[nH]1)c1ccc(C(F)(F)F)s1` (single isomer, unassigned) [Example 5B]: the IC50 by setting is: under setting [2], 1 to 10 µM; under setting [3], 1 to 10 µM. `C[C@@H](NC(=O)C1CC1c1nc2ccccc2[nH]1)c1ccc(Br)s1` (single isomer, unassigned) [Example 6A]: the IC50 is 0.1 to 1 µM under setting [2] and 1 to 10 µM under setting [3]. The matching figures for `C[C@@H](NC(=O)C1CC1c1nc2ccccc2[nH]1)c1ccc(Br)s1` (single isomer, unassigned) [Example 6B]: 1 to 10 µM and more than 10 µM. Take `C[C@H](NC(=O)C1CC1c1nc2ccccc2[nH]1)c1cnc(OCC(F)(F)F)s1` (single isomer, unassigned) [Example 7A]: the IC50 is, setting by setting: under setting [2], 1 to 10 µM; under setting [3], more than 10 µM. The matching figures for `C[C@H](NC(=O)C1CC1c1nc2ccccc2[nH]1)c1cnc(OCC(F)(F)F)s1` (single isomer, unassigned) [Example 7B]: 1 to 10 µM and more than 10 µM. In the case of `C[C@@H](NC(=O)C1CC1c1nc2ccccc2[nH]1)c1cnc(OCC(F)(F)F)s1` (single isomer, unassigned) [Example 8B], under setting [2], the IC50 is more than 10 µM.

Take `C[C@@H](NC(=O)C1CC1c1nc2ccccc2[nH]1)c1ncc(Br)s1` (single isomer, unassigned) [Example 11A]: the IC50 under setting [2] fell in the range of 1 to 10 µM and the IC50 under setting [3] is more than 10 µM. With `C[C@@H](NC(=O)C1CC1c1nc2ccccc2[nH]1)c1ncc(Br)s1` (single isomer, unassigned) [Example 11B], under setting [2], the IC50 was more than 10 µM.

For `C[C@@H](NC(=O)C1CC1c1cc(F)cc(F)c1)c1ccc(OCC(F)(F)F)s1` (single isomer, unassigned) [Example 19A], the IC50 under setting [1] is more than 10 µM. With `C[C@@H](NC(=O)C1CC1c1cc(F)cc(F)c1)c1ccc(OCC(F)(F)F)s1` (single isomer, unassigned) [Example 19B], the IC50 under setting [1] is more than 10 µM. For the compound `C[C@@H](NC(=O)C1CC1c1ccc2cnn(C)c2c1)c1ccc(OCC(F)(F)F)s1` (single isomer, unassigned) [Example 22B], the IC50 under setting [1] lay in the range of 0.1 to 1 µM. Turning to `C[C@@H](NC(=O)C1CC1c1ccccn1)c1ccc(OCC(F)(F)F)s1` (single isomer, unassigned) [Example 23A], the IC50 under setting [1] is 1 to 10 µM. In the case of `C[C@@H](NC(=O)C1CC1c1ccccn1)c1ccc(OCC(F)(F)F)s1` (single isomer, unassigned) [Example 23B], under setting [1], the IC50 is more than 10 µM. With `C[C@@H](NC(=O)C1CC1c1nc2ccccc2[nH]1)c1ccc(C(=O)O)s1` (single isomer, unassigned) [Example 27], the IC50 under setting [1] is more than 10 µM. As to `C[C@@H](NC(=O)C1CC1c1cn(C)c2ccccc12)c1ccc(OCC(F)(F)F)s1` (single isomer, unassigned) [Example 29A], the IC50 under setting [1] was more than 10 µM. Take `C[C@@H](NC(=O)C1CC1c1cn(C)c2ccccc12)c1ccc(OCC(F)(F)F)s1` (single isomer, unassigned) [Example 29B]: the IC50 under setting [1] was more than 10 µM. `C[C@@H](NC(=O)C1CC1c1nc2ccccc2[nH]1)c1ccc(C(N)=O)s1` (single isomer, unassigned) [Example 30]: the IC50 under setting [1] is more than 10 µM.

For `C[C@@H](NC(=O)C1CC1c1nc(-c2ccccc2)c[nH]1)c1ccc(OCC(F)(F)F)s1` (single isomer, unassigned) [Example 31B], the IC50 under setting [1] was 0.1 to 1 µM. The same measure, in the same setting: as for `C[C@@H](NC(=O)C1CC1c1ccc2ccccc2n1)c1ccc(OCC(F)(F)F)s1` (single isomer, unassigned) [Example 34B], the figure is 0.1 to 1 µM. For the compound `C[C@@H](NC(=O)C1CC1c1nc2cccnc2[nH]1)c1ccc(OCC(F)(F)F)s1` (single isomer, unassigned) [Example 35], the IC50 under setting [1] was in the range of 1 to 10 µM. Consider `C[C@@H](NC(=O)C1CC1c1nccn1Cc1ccccc1)c1ccc(OCC(F)(F)F)s1` (single isomer, unassigned) [Example 38A], for which the IC50 under setting [1] is more than 10 µM. As to `C[C@@H](NC(=O)C1CC1c1nccn1Cc1ccccc1)c1ccc(OCC(F)(F)F)s1` (single isomer, unassigned) [Example 38B], the IC50 under setting [1] was more than 10 µM. In the case of `C[C@@H](NC(=O)C1CC1c1nc2ccccc2o1)c1ccc(OCC(F)(F)F)s1` (single isomer, unassigned) [Example 40A], under setting [1], the IC50 is more than 10 µM. For `C[C@@H](NC(=O)C1CC1c1nc2ccccc2o1)c1ccc(OCC(F)(F)F)s1` (single isomer, unassigned) [Example 40B], the IC50 under setting [1] is more than 10 µM. `CC(C)[C@@H](NC(=O)C1CC1c1nc2ccccc2[nH]1)c1ccc(OCC(F)(F)F)s1` (single isomer, unassigned) [Example 44]: the IC50 under setting [1] is not above 0.1 µM.

Consider `C[C@@H](NC(=O)C1CC1c1ccc2ccccc2n1)c1ccc(Br)s1` (single isomer, unassigned) [Example 45], for which, under setting [1], the IC50 is 0.1 to 1 µM.

In the case of `C[C@@H](NC(=O)C1CC1c1cn(C)c2ccccc12)c1cnc(OCC(F)(F)F)s1` (single isomer, unassigned) [Example 48], the IC50 under setting [1] was not above 0.1 µM.

For the compound `C[C@@H](NC(=O)C1CC1c1nc2cc(Cl)ccc2[nH]1)c1ccc(OCC(F)(F)F)s1` (single isomer, unassigned) [Example 53A], the IC50 under setting [1] was not above 0.1 µM. Regarding `C[C@@H](NC(=O)C1CC1c1nc2cc(Cl)ccc2[nH]1)c1ccc(OCC(F)(F)F)s1` (single isomer, unassigned) [Example 53B], the IC50 under setting [1] lay in the range of 0.1 to 1 µM. For the compound `CCn1c(C2CC2C(=O)N[C@H](C)c2cnc(OCC(F)(F)F)s2)nc2ccccc21` (single isomer, unassigned) [Example 57A], the IC50 under setting [1] lay within 0.1 to 1 µM.

For the compound `CCn1c(C2CC2C(=O)N[C@H](C)c2cnc(OCC(F)(F)F)s2)nc2ccccc21` (single isomer, unassigned) [Example 57B], the IC50 under setting [1] lay in the range of 1 to 10 µM. `C[C@@H](NC(=O)C1CC1c1nc2cc(Cl)ccc2[nH]1)c1cnc(OCC(F)(F)F)s1` (single isomer, unassigned) [Example 64B]: the IC50 under setting [1] was in the range of 1 to 10 µM. Still for that read-out and setting: as for `COc1ccc2[nH]c(C3CC3C(=O)N[C@H](C)c3ccc(OCC(F)(F)F)s3)nc2c1` (single isomer, unassigned) [Example 71A], the figure is 0.1 to 1 µM; as for `COc1ccc2[nH]c(C3CC3C(=O)N[C@H](C)c3ccc(OCC(F)(F)F)s3)nc2c1` (single isomer, unassigned) [Example 71B], 0.1 to 1 µM.
